Results from ChEMBL document CHEMBL1128993, “Optimization of retro-thiorphan for inhibition of endothelin converting enzyme” (Bioorg Med Chem Lett, 1996).

Tested on: Endothelin-converting enzyme 1 (Sus scrofa)
Assay: Inhibition of endothelin-converting enzyme 1 partially purified from porcine primary aortic endothelial cells at 20 uM
Details: Endothelial cell

inhibition [%]	SMILES
15	O=C(Cc1ccccc1)N[C@@H](CS)Cc1ccc(OCc2ccccc2)cc1
51	O=C(Cc1ccc(OCc2ccccc2)cc1)N[C@@H](CS)Cc1cccc2ccccc12
> 20	O=C(Cc1ccc(OCc2ccccc2)cc1)N[C@H](Cc1c[nH]c2ccccc12)C(=O)N1CCC[C@@H]1CS
> 20	O=C(Cc1ccc(OCc2ccccc2)cc1)N[C@@H](CCS)Cc1c[nH]c2ccccc12
16	O=C(Cc1ccc(-c2ccccc2)cc1)N[C@@H](CS)CCc1ccccc1
91	O=C(Cc1ccc(-c2ccccc2)cc1)N[C@@H](CS)Cc1cccnc1
74	O=C(Cc1ccc(-c2ccccc2)cc1)N[C@@H](CS)Cc1ccccc1
0	O=C(Cc1ccc(OCc2ccccc2)cc1)N[C@@H](CS)Cc1ccc(-c2cccc3ccccc23)cc1
68	Cn1cc(C[C@H](CS)NC(=O)Cc2ccc(-c3ccccc3)cc2)c2ccccc21
10	O=C(Cc1ccc(OCc2ccccc2)cc1)N[C@@H](CS)Cc1ccc2ccccc2c1
58	O=C(Cc1ccccc1)N[C@@H](CS)Cc1ccccc1

Second part, the compound before the results:

SMILES	inhibition [%]
CC(C)C[C@H](CS)NC(=O)c1cccnc1	21
O=C(N[C@@H](CS)Cc1ccccc1)c1nccc2ccccc12	36
CN(C(=O)Cc1ccccc1)[C@@H](CS)Cc1ccccc1	24
O=C(Cc1ccccc1)N[C@@H](CS)Cc1ccc(O)cc1	56
O=C(N[C@@H](CS)Cc1ccccc1)C1Cc2ccccc2CN1 (some centres undefined)	33
O=C(CCc1cccnc1)N[C@@H](CS)Cc1ccccc1	66
O=C(CCc1ccccc1O)N[C@@H](CS)Cc1ccccc1	58
O=C(N[C@@H](CS)Cc1ccccc1)c1c[nH]c2ccccc12	67
O=C(N[C@@H](CS)Cc1ccccc1)[C@@H]1CCCN1	0
O=C(N[C@@H](CS)Cc1ccccc1)c1ccccn1	52
CC(C)[C@H](CS)NC(=O)c1cccnc1	30
O=C(CCc1ccccc1)N[C@@H](CS)Cc1ccccc1	49
O=C(CCC(C(=O)O)c1ccccc1)N[C@@H](CS)Cc1ccccc1 (some centres undefined)	48
O=C(N[C@@H](CS)Cc1ccccc1)/C(=C/c1ccccc1)c1ccccc1	23
O=C(N[C@@H](CS)Cc1ccccc1)c1ccco1	54
O=C(CCc1ccccc1Cl)N[C@@H](CS)Cc1ccccc1	57
O=C(Cc1cccnc1)N[C@@H](CS)Cc1ccccc1	58
O=C(N[C@@H](CS)Cc1ccccc1)c1cccs1	67
O=C(N[C@@H](CS)Cc1ccccc1)c1cc2ccccc2cn1	76
O=C(N[C@H](Cc1c[nH]c2ccccc12)C(=O)NCCS)c1cccnc1	> 20
O=C(N[C@@H](CS)Cc1ccccc1)c1ccncc1	48
O=C(N[C@@H](CS)Cc1ccc(-c2ccccc2)cc1)c1cccnc1	39

Tested on: Endothelin-converting enzyme 1 (Sus scrofa)
Assay: Compound was evaluated for inhibition of Endothelin converting enzyme-1 partially purified from porcine primary aortic endothelial cells at 20 uM
Details: Endothelial cell

inhibition [%]	SMILES
63	O=C(Cc1ccccc1OCc1ccccc1)N[C@@H](CS)Cc1ccccc1
